Data reported in PubChem BioAssay AID2060485 (Molecular Pharmacology Branch, DTP, NCI, 2025).

System: A375 multi-cell spheroids with HUVEC/MSC, viability
Test: Anticancer human tumor A375 cell line growth inhibition [GQUAD];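 further: spheroids exposed to compounds for seven days before readout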
Details: for IC50: curve of first compound; for viability, T/C: stronger effect = lower value
Excerpt: DNA G-quadruplex Stabilizer Agents in Combinations in Complex Spheroids
A high-throughput screen of multi-cell type tumor spheroids was designed to identify active combinations of DNA G-quadruplex stabilizer agents and targeted small molecules. Complex spheroids include a stromal component modeled by human endothelial cells (HUVEC) and fibroblasts modeled by human mesenchymal stem cells (MSCs). The concentration ranges selected for each drug and investigational agent were based upon clinically achievable concentrations if the clinical Cmax of the agent was known.
Compounds. The drugs and investigational agents: pidnarulex (CX-5461; NSC782164), APTO-253 (NSC789042), BRACO-19 (NSC847499), peposertib (NSC802822), ceralasertib (NSC780249), elimusertib (NSC800525), camonsertib (NSC841442), AZD-1390 (NSC803789), olaparib (NSC753686), talazoparib (NSC767125), ART-558 (NSC835418), sotorasib (NSC818433), MRTX-1133 (NSC836407), SN-38 (NSC673596), topotecan (NSC609699), etoposide (NSC141540), doxorubicin (NSC123127), gemcitabine (NSC613327), 5-fluorouracil (NSC19893), paclitaxel (NSC125973), vemurafenib (NSC761431), panobinostat (NSC761190), R-306465 (JNJ-16241199; NSC773264), adavosertib (NSC754352), TP-3654 (NSC805149), carboplatin (NSC241240), KSQ-4279 (NSC840948), and staurosporine (NSC755774) were obtained from the National Cancer Institute (NCI) Developmental Therapeutics Program Chemical Repository (34). The FDA-approved anticancer drug set is available from the NCI Developmental Therapeutics Program. […] The stock solutions were prepared in dimethyl sulfoxide (DMSO, Sigma-Aldrich, St. Louis, MO, cat. D2650) at 800-fold the tested concentration and stored at -70 degrees C prior to their use. All drugs and investigational agents were tested over a range starting from a high concentration at or near the clinical Cmax and decreasing in half-log increments. If the clinical Cmax for an agent had not been determined, the highest concentration tested was 10 microM.
2.3 Cell Culture. All cells were maintained in an incubator at 37 degrees C and 5% CO2 with 95% humidity. The PDC lines were cultured according to standard operating procedures established by the NCI PDMR. All PDCs were thawed and cultured in Matrigel-coated flasks prepared with a working solution of 1X Ham's F-12 nutrient mix, without supplementation (Invitrogen, cat. 11765054), 100 U/mL penicillin-streptomycin (Invitrogen, cat. 15140122), and 2.5% Matrigel (Corning Inc., cat. 354248) for the first three passages. The 857933-349-R-J2-PDC line was cultured in 6C/Colon 1B media, which includes advanced DMEM/F-12 (Thermo Fisher Scientific, cat. 12634028), 10 mM HEPES (Thermo Fisher Scientific, cat. 15630080), 1X GlutaMAX supplement (Thermo Fisher Scientific, cat. 35050061), 0.1 mg/mL primocin (InvivoGen, cat. ant-pm-2), 10% defined fetal bovine serum, heat inactivated (HyClone Laboratories Inc., cat. SH30070.03HI), 50% L-WRN conditioned media (ATCC, cat. CRL-3276), 1.25 mM N-Acetyl-L-cysteine (Sigma-Aldrich, cat. A9165), 10 mM nicotinamide (Sigma-Aldrich, cat. N0636), 1X B-27 supplement (Thermo Fisher Scientific, cat. 17504044), 1X N-2 supplement (Thermo Fisher Scientific, cat. 17502048), 10 microM Y-27632 dihydrochloride (Tocris Bioscience, cat. 1254), and 50 ng/mL human EGF recombinant protein (Thermo Fisher Scientific, cat. PHG0311). The 485176-168-R4-J1-PDC line was cultured in Panc media, which includes all 6C/Colon 1B media components plus 100 ng/mL human FGF-10 (Thermo Fisher Scientific, cat. 100-26), 500 nM SB-431542 (Selleckchem, cat. S1067), and gastrin (Tocris, cat. 3006).
[…]

[1] = second compound 0.0316 µM, first compound 0.0316 µM
[2] = second compound 0.0316 µM, first compound 0.1 µM
[3] = second compound 0.0316 µM, first compound 0.316 µM
[4] = second compound 0.0316 µM, first compound 1 µM
[5] = second compound 0.0316 µM, first compound 3.16 µM
[6] = second compound 0.0316 µM, first compound 10 µM
[7] = second compound 0.1 µM, first compound 0.0316 µM
[8] = second compound 0.1 µM, first compound 0.1 µM
[9] = second compound 0.1 µM, first compound 0.316 µM
[10] = second compound 0.1 µM, first compound 1 µM
[11] = second compound 0.1 µM, first compound 3.16 µM
[12] = second compound 0.1 µM, first compound 10 µM
[13] = second compound 0.316 µM, first compound 0.0316 µM
[14] = second compound 0.316 µM, first compound 0.1 µM
[15] = second compound 0.316 µM, first compound 0.316 µM
[16] = second compound 0.316 µM, first compound 1 µM
[17] = second compound 0.316 µM, first compound 3.16 µM
[18] = second compound 0.316 µM, first compound 10 µM
[19] = second compound 1 µM, first compound 0.0316 µM
[20] = second compound 1 µM, first compound 0.1 µM
[21] = second compound 1 µM, first compound 0.316 µM
[22] = second compound 1 µM, first compound 1 µM
[23] = second compound 1 µM, first compound 3.16 µM
[24] = second compound 1 µM, first compound 10 µM
[25] = second compound 3.16 µM, first compound 0.0316 µM
[26] = second compound 3.16 µM, first compound 0.1 µM
[27] = second compound 3.16 µM, first compound 0.316 µM
[28] = second compound 3.16 µM, first compound 1 µM
[29] = second compound 3.16 µM, first compound 3.16 µM
[30] = second compound 3.16 µM, first compound 10 µM
[31] = second compound 10 µM, first compound 0.0316 µM
[32] = second compound 10 µM, first compound 0.1 µM
[33] = second compound 10 µM, first compound 0.316 µM
[34] = second compound 10 µM, first compound 1 µM
[35] = second compound 10 µM, first compound 3.16 µM
[36] = second compound 10 µM, first compound 10 µM

## O=c1[nH]cc(F)c(=O)[nH]1 + CN(C)c1ccc(Nc2c3ccc(NC(=O)CCN4CCCC4)cc3nc3cc(NC(=O)CCN4CCCC4)ccc23)cc1
Second compound 0.0316 µM
  IC50: > 10 µM
Second compound 0.1 µM
  IC50: > 10 µM
Second compound 0.316 µM
  IC50: > 10 µM
Second compound 1 µM
  IC50: > 10 µM
Second compound 3.16 µM
  IC50: > 10 µM
Second compound 10 µM
  IC50: > 10 µM
[1]
  viability, T/C: 98.7%
[2]
  viability, T/C: 107%
[3]
  viability, T/C: 97.2%
[4]
  viability, T/C: 106%
[5]
  viability, T/C: 109%
[6]
  viability, T/C: 99.3%
[7]
  viability, T/C: 99.8%
[8]
  viability, T/C: 104%
[9]
  viability, T/C: 99.3%
[10]
  viability, T/C: 103%
[11]
  viability, T/C: 106%
[12]
  viability, T/C: 96.8%
[13]
  viability, T/C: 112%
[14]
  viability, T/C: 102%
[15]
  viability, T/C: 97.8%
[16]
  viability, T/C: 103%
[17]
  viability, T/C: 107%
[18]
  viability, T/C: 92.9%
[19]
  viability, T/C: 108%
[20]
  viability, T/C: 100%
[21]
  viability, T/C: 94.2%
[22]
  viability, T/C: 104%
[23]
  viability, T/C: 105%
[24]
  viability, T/C: 96%
[25]
  viability, T/C: 108%
[26]
  viability, T/C: 98.1%
[27]
  viability, T/C: 101%
[28]
  viability, T/C: 99.1%
[29]
  viability, T/C: 100%
[30]
  viability, T/C: 95.4%
[31]
  viability, T/C: 106%
[32]
  viability, T/C: 94.4%
[33]
  viability, T/C: 101%
[34]
  viability, T/C: 102%
[35]
  viability, T/C: 105%
[36]
  viability, T/C: 98.4%

## CC1COCCN1c1cc(C2(S(C)(=N)=O)CC2)nc(-c2ccnc3[nH]ccc23)n1 (centres undefined) + Cc1[nH]c2ccc(F)cc2c1-c1nc2c3cccnc3c3ncccc3c2[nH]1
Second compound 0.0316 µM
  IC50: 7.11 µM
Second compound 0.1 µM
  IC50: 8.02 µM
Second compound 0.316 µM
  IC50: 9.01 µM
Second compound 1 µM
  IC50: 7.96 µM
Second compound 3.16 µM
  IC50: 1.3 µM
Second compound 10 µM
  IC50: 2.11 µM
[1]
  viability, T/C: 105%
[2]
  viability, T/C: 107%
[3]
  viability, T/C: 99.4%
[4]
  viability, T/C: 92%
[5]
  viability, T/C: 64.5%
[6]
  viability, T/C: 43.9%
[7]
  viability, T/C: 113%
[8]
  viability, T/C: 106%
[9]
  viability, T/C: 107%
[10]
  viability, T/C: 98.2%
[11]
  viability, T/C: 74.4%
[12]
  viability, T/C: 44.2%
[13]
  viability, T/C: 106%
[14]
  viability, T/C: 105%
[15]
  viability, T/C: 112%
[16]
  viability, T/C: 109%
[17]
  viability, T/C: 78.7%
[18]
  viability, T/C: 47.2%
[19]
  viability, T/C: 108%
[20]
  viability, T/C: 109%
[21]
  viability, T/C: 115%
[22]
  viability, T/C: 112%
[23]
  viability, T/C: 82%
[24]
  viability, T/C: 42%
[25]
  viability, T/C: 107%
[26]
  viability, T/C: 88.7%
[27]
  viability, T/C: 83.3%
[28]
  viability, T/C: 57%
[29]
  viability, T/C: 27.8%
[30]
  viability, T/C: 12.9%
[31]
  viability, T/C: 94.5%
[32]
  viability, T/C: 107%
[33]
  viability, T/C: 104%
[34]
  viability, T/C: 74.9%
[35]
  viability, T/C: 36.9%
[36]
  viability, T/C: 15.4%
